From ChEMBL document CHEMBL1141547, “Investigations of the esterase, phosphatase, and sulfatase activities of the cytosolic mammalian carbonic anhydrase isoforms I, II, and XIII with 4-nitrophenyl esters as substrates” (Bioorg Med Chem Lett, 2008)

Tests used:
Carbonic anhydrase 13 [1] = target: T1, Carbonic anhydrase 13 (Mus musculus, UniProt Q9D6N1); test: Inhibition of mouse carbonic anhydrase 13 assessed as 4-nitrophenyl phosphate hydrolysis
Carbonic anhydrase 13 [2] = target: T1, Carbonic anhydrase 13; test: Inhibition of mouse carbonic anhydrase 13 assessed as 4-nitrophenyl acetate hydrolysis

T1 sequence (Q9D6N1 whole entry): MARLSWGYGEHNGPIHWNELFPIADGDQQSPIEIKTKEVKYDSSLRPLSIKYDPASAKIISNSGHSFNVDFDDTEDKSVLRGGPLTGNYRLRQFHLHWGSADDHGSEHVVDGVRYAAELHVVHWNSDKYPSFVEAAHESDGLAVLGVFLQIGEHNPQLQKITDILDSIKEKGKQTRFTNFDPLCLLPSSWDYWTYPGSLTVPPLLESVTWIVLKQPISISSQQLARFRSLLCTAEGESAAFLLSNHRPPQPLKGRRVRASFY

IC50 (Carbonic anhydrase 13 [1]): 1050 nM | IC50 (Carbonic anhydrase 13 [2]): 490 nM
SMILES: CC(=O)Nc1nnc(S(N)(=O)=O)s1 [ACETAZOLAMIDE]
